Measured values taken from ChEMBL document CHEMBL1201862, “PubChem BioAssay data set” (2004).
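How tested: cells in 96-well plates exposed to compound for 48 hours at five concentrations. GI50 is the concentration that inhibits growth by half.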 Active and inactive are the calls of the source. Cut-off read from the data, not from the text of the source: active = GI50 up to about 1.1 µM and inactive = higher.

Legend:
Assay in all cases: NCI tumour cell line growth inhibition, 48 h
SF-295 = system: SF-295
DU-145 = system: DU-145
NCI-H23 = system: NCI-H23
KM-20L2 = system: KM-20L2
SNB-75 = system: SNB-75
MDA-N = system: MDA-N
HCC 2998 = system: HCC 2998
CAKI-1 = system: CAKI-1
NCI/ADR-RES = system: NCI/ADR-RES
HOP-62 = system: HOP-62
NCI-H522 = system: NCI-H522
OVCAR-8 = system: OVCAR-8
IGROV-1 = system: IGROV-1
OVCAR-3 = system: OVCAR-3
SNB-19 = system: SNB-19
A498 = system: A498
BT-549 = system: BT-549
ACHN = system: ACHN
RXF 393 = system: RXF 393
EKVX = system: EKVX

Measured: GI50

CC(C)Cc1ccc(C(C)/C=C2\CCC(CN3CCOCC3)C2=O)cc1 (stereo not given)
inactive: SF-295 15.3 µM | DU-145 13.7 µM | NCI-H23 12.9 µM | KM-20L2 16.3 µM | SNB-75 8.34 µM | MDA-N 12.1 µM | HCC 2998 11.6 µM | CAKI-1 18 µM | NCI/ADR-RES 3.93 µM | HOP-62 11.7 µM | NCI-H522 5.62 µM | OVCAR-8 3.61 µM | IGROV-1 7.71 µM | OVCAR-3 4.1 µM | SNB-19 8.51 µM | A498 12.5 µM | BT-549 17.9 µM | ACHN 16 µM | RXF 393 8.43 µM | EKVX 18 µM
